What is called IC50 is the point on the concentration scale where inhibition reaches its midpoint.

From US10226452B2, “Benzoxazolone derivatives as acid ceramidase inhibitors, and their use as medicaments” (FONDAZIONE ISTITUTO ITALIANO DI TECNOLOGIA, priority 2014, dated 2019) come the findings set out here.

For this assay, the target named is human (hAC) acid ceramidase (Homo sapiens (Human), UniProt Q13510). Nature of the assay: fluorescent-based in vitro assay on human acid ceramidase. Conditions: hAC-enriched lysosomal lysate from HEK293 cells; fluorogenic probe 5 μM; pH 4.5. The assay is classed as biochemical. The source says: To evaluate the potency of the compounds towards acid ceramidase, a fluorescence-based in vitro assay previously described in literature (Bedia C et al., ChemBioChem, 2007, 8, 642-648) was implemented and optimized. This assay is based on a “fluorogenic probe” containing a coumarin group and a sphingoid base moiety (see figure below), which is not fluorescent in itself, but upon enzymatic cleavage by acid ceramidase followed by a chemical transformation liberates the fluorescent molecule umbelliferone (7-hydroxychromen-2-one). By quantifying the generation of umbelliferone using a fluorescence plate-reader, the level of enzymatic activity can be measured, whereby IC50 values of compounds that inhibit this activity can be generated.
Chain of human (hAC) acid ceramidase (Q13510 22-142): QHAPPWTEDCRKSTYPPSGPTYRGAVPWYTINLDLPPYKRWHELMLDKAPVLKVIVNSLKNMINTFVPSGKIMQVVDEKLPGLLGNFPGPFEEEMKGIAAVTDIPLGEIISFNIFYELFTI
Chain of human (hAC) acid ceramidase (Q13510 143-395): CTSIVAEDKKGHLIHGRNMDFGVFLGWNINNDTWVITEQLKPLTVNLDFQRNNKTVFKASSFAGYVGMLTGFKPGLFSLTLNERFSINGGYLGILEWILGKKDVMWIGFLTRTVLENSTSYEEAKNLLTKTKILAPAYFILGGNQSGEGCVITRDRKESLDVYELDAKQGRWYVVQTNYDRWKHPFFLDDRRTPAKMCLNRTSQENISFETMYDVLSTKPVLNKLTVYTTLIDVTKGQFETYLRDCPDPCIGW
Lysosomal lysate, enriched with acid ceramidase, was prepared from a cell line stably expressing human acid ceramidase. In the assay, the fluorogenic probe (or substrate) serves as a ceramide-analogue, which is recognized and hydrolyzed at the amide bond by acid ceramidase from the enriched lysate to yield the fatty acid and coumarinic aminodiol. By treating the solution with sodium periodate (NaIO4), the coumarinic aminodiol is subsequently oxidized into an aldehyde intermediate, which undergoes a β-elimination reaction to release the strongly fluorescent umbelliferone.
A lysosomal human acid ceramidase protein preparation was obtained from HEK293 cells stably expressing acid ceramidase suspended in 20 mM Tris HCl (pH 7.5) with 0.32 M sucrose. The cell solution was sonicated and centrifuged at 800×g for 15 min at 4° C. Supernatants were then centrifuged at 12,000×g for 30 min at 4° C. Pellets were re-suspended in PBS pH 7.4 and subjected to two freeze-thaw cycles at −80° C. The suspension was finally centrifuged at 105,000×g for 1 hour at 4° C. and protein concentration was measured in the supernatant with bicinchinonic-acid based protein assay. This human acid ceramidase-enriched preparation allowed us to further optimize the enzymatic assay and to use smaller amounts of lysate (2 μg/well) and substrate (5 μM).
The assay was performed in Optiplate 96-wells black plates, with each reaction well containing a mixture of 25 mM sodium acetate buffer pH 4.5 and a fixed amount of protein (2 μg) in a volume of 85 μL. After 30 mins of pre-incubation with test compounds (diluted 20× from DMSO stock solutions at different concentrations), the fluorogenic probe was added (diluted 20× from EtOH stock solution, final concentration 5 μM). After incubation for 3 hours at 37° C., the reactions were stopped with 50 μL of methanol and 100 μL of a 2.5 mg/mL NalO4 fresh solution in 100 mM Glycine/NaOH pH 10.6. The plate was incubated at 37° C. for 2 hours in the dark and fluorescence intensities were measured at excitation/emission wavelengths of 360/446 nm. Negative control samples consisted of the same incubation mixture in the absence of protein extracts. The IC50 values or percent of inhibition, at the indicated concentration, of selected compounds described in the invention are reported in Table 2.
`O=C(NCCCCc1ccccc1)n1c(=O)oc2ccccc21` [Example 1, 2-Oxo-N-(4-phenylbutyl)-1,3-benzoxazole-3-carboxamide] returned an IC50 of 64 ± 7 nM. In the case of `O=C(NCCCCc1ccccc1)n1c(=O)oc2ccc(F)cc21` [Example 2, 5-Fluoro-2-oxo-N-(4-phenylbutyl)-1,3-benzoxazole-3-carboxamide] it was 56 ± 12 nM; in that of `O=C(NCCCCc1ccccc1)n1c(=O)oc2cc(F)ccc21` [Example 3, 6-Fluoro-2-oxo-N-(4-phenylbutyl)-1,3-benzoxazole-3-carboxamide], 10 ± 7 nM; in that of `O=C(NCCCCc1ccccc1)n1c(=O)oc2ccc(Cl)cc21` [Example 4, 5-Chloro-2-oxo-N-(4-phenylbutyl)-1,3-benzoxazole-3-carboxamide], 9 ± 7 nM. The same measure for `O=C(NCCCCc1ccccc1)n1c(=O)oc2cc(Cl)ccc21` [Example 5, 6-Chloro-2-oxo-N-(4-phenylbutyl)-1,3-benzoxazole-3-carboxamide]: 33 ± 4 nM; for `O=C(NCCCCc1ccccc1)n1c(=O)oc2ccc(Br)cc21` [Example 6, 5-Bromo-2-oxo-N-(4-phenylbutyl)-1,3-benzoxazole-3-carboxamide]: 22 ± 11 nM; for `Cc1ccc2oc(=O)n(C(=O)NCCCCc3ccccc3)c2c1` [Example 8, 5-Methyl-2-oxo-N-(4-phenylbutyl)-1,3-benzoxazole-3-carboxamide]: 117 ± 26 nM. In the case of `Cc1ccc2c(c1)oc(=O)n2C(=O)NCCCCc1ccccc1` [Example 9, 6-Methyl-2-oxo-N-(4-phenylbutyl)-1,3-benzoxazole-3-carboxamide] it was 66 ± 9 nM; in that of `COc1ccc2c(c1)oc(=O)n2C(=O)NCCCCc1ccccc1` [Example 10, 6-Methoxy-2-oxo-N-(4-phenylbutyl)-1,3-benzoxazole-3-carboxamide], 52 ± 9 nM.

`O=C(NCCCCc1ccccc1)n1c(=O)oc2ccc([N+](=O)[O-])cc21` [Example 11, 5-Nitro-2-oxo-N-(4-phenylbutyl)-1,3-benzoxazole-3-carboxamide] gave an IC50 of 3 ± 2 nM. `O=C(NCCCCc1ccccc1)n1c(=O)oc2cc([N+](=O)[O-])ccc21` [Example 12, 6-Nitro-2-oxo-N-(4-phenylbutyl)-1,3-benzoxazole-3-carboxamide] had an IC50 of 3 ± 1 nM.

The molecule `O=C(NCCCCc1ccccc1)n1c(=O)oc2ccc(C(F)(F)F)cc21` [Example 13, 2-Oxo-N-(4-phenylbutyl)-5-(trifluoromethyl)-1,3-benzoxazole-3-carboxamide] yielded an IC50 of 11 ± 5 nM. In the case of `O=C(NCCCCc1ccccc1)n1c(=O)oc2cc(C(F)(F)F)ccc21` [Example 14, 2-Oxo-N-(4-phenylbutyl)-6-(trifluoromethyl)-1,3-benzoxazole-3-carboxamide] it was 20 ± 9 nM; in that of `N#Cc1ccc2oc(=O)n(C(=O)NCCCCc3ccccc3)c2c1` [Example 15, 5-Cyano-2-oxo-N-(4-phenylbutyl)-1,3-benzoxazole-3-carboxamide], 11 nM; in that of `O=C(NCCCCc1ccccc1)n1c(=O)oc2cc(Cl)c(Cl)cc21` [Example 16, 5,6-Dichloro-2-oxo-N-(4-phenylbutyl)-1,3-benzoxazole-3-carboxamide], 18 ± 8 nM. The same measure for `Cc1cccc2c1oc(=O)n2C(=O)NCCCCc1ccccc1` [Example 18, 7-Methyl-2-oxo-N-(4-phenylbutyl)-1,3-benzoxazole-3-carboxamide]: 23 ± 5 nM. Turning to `O=C(NCCCCc1ccccc1)n1c(=O)oc2c(Br)cccc21` [Example 19, 7-Bromo-2-oxo-N-(4-phenylbutyl)-1,3-benzoxazole-3-carboxamide], the IC50 was found to be 18 ± 11 nM. In the case of `O=C(NCCCCc1ccccc1)n1c(=O)oc2ccc(-c3ccccc3)cc21` [Example 20, 2-Oxo-5-phenyl-N-(4-phenylbutyl)-1,3-benzoxazole-3-carboxamide] it was 22 nM; in that of `COc1ccc(-c2ccc3oc(=O)n(C(=O)NCCCCc4ccccc4)c3c2)cc1` [Example 21, 5-(4-Methoxyphenyl)-2-oxo-N-(4-phenylbutyl)-1,3-benzoxazole-3-carboxamide], 68 nM.

With `O=C(NCCCCc1ccccc1)n1c(=O)oc2ccc(-c3ccc(F)cc3)cc21` [Example 22, 5-(4-Fluorophenyl)-2-oxo-N-(4-phenylbutyl)-1,3-benzoxazole-3-carboxamide], the concentration for half-maximal inhibition (IC50) turned out to be 56 ± 14 nM. The same measure for `O=C(NCCCCc1ccccc1)n1c(=O)oc2cc(-c3ccccc3)ccc21` [Example 23, 2-Oxo-6-phenyl-N-(4-phenylbutyl)-1,3-benzoxazole-3-carboxamide]: 84 ± 35 nM; for `COc1ccc(-c2ccc3c(c2)oc(=O)n3C(=O)NCCCCc2ccccc2)cc1` [Example 24, 6-(4-Methoxyphenyl)-2-oxo-N-(4-phenylbutyl)-1,3-benzoxazole-3-carboxamide]: 67 ± 5 nM. As for `O=C(NCCCCc1ccccc1)n1c(=O)oc2cccc(-c3ccccc3)c21` [Example 26, 2-Oxo-4-phenyl-N-(4-phenylbutyl)-1,3-benzoxazole-3-carboxamide], the IC50 is 0.8 ± 0.1 nM. The same measure for `O=C(NCCCCc1ccccc1)n1c(=O)oc2c(-c3ccccc3)cccc21` [Example 27, 2-Oxo-7-phenyl-N-(4-phenylbutyl)-1,3-benzoxazole-3-carboxamide]: 91 ± 10 nM. In the case of `O=C(NCCCCc1ccccc1)n1c(=O)oc2cc(O)ccc21` [Example 35, 6-Hydroxy-2-oxo-N-(4-phenylbutyl)-1,3-benzoxazole-3-carboxamide] it was 152 ± 87 nM; in that of `CCC(=O)c1ccc2c(c1)oc(=O)n2C(=O)NCCCCc1ccccc1` [Example 36, 2-Oxo-N-(4-phenylbutyl)-6-propanoyl-1,3-benzoxazole-3-carboxamide], 16 ± 14 nM. In the case of `O=C(c1ccccc1)c1ccc2c(c1)oc(=O)n2C(=O)NCCCCc1ccccc1` [Example 37, 6-Benzoyl-2-oxo-N-(4-phenylbutyl)-1,3-benzoxazole-3-carboxamide] it was 29 ± 1 nM; in that of `O=C(c1ccc(Cl)cc1)c1ccc2c(c1)oc(=O)n2C(=O)NCCCCc1ccccc1` [Example 38, 6-(4-Chlorobenzoyl)-2-oxo-N-(4-phenylbutyl)-1,3-benzoxazole-3-carboxamide], 14 ± 4 nM; in that of `O=C(NCCCCC1CCCCC1)n1c(=O)oc2ccccc21` [Example 39, N-(4-Cyclohexylbutyl)-2-oxo-1,3-benzoxazole-3-carboxamide], 62 ± 44 nM. Take `CCC[C@H]1CC[C@H](CNC(=O)n2c(=O)oc3ccccc32)CC1` [Example 40, 2-Oxo-N-[(4-propylcyclohexyl)methyl]-1,3-benzoxazole-3-carboxamide]: inhibition was half-maximal at 135 ± 56 nM (IC50). The same measure for `CCCc1ccc(CNC(=O)n2c(=O)oc3ccccc32)cc1` [Example 41, 2-Oxo-N-[(4-propylphenyl)methyl]-1,3-benzoxazole-3-carboxamide]: 19 ± 2 nM; for `CCCCCCCCNC(=O)n1c(=O)oc2ccccc21` [Example 42, N-Octyl-2-oxo-1,3-benzoxazole-3-carboxamide]: 34 ± 14 nM; for `O=C(NCCCc1ccccc1)n1c(=O)oc2ccccc21` [Example 43, 2-Oxo-N-(3-phenylpropyl)-1,3-benzoxazole-3-carboxamide]: 55 ± 6 nM.

The molecule `O=C(NCCCCc1cccs1)n1c(=O)oc2ccccc21` [Example 44, 2-Oxo-N-[4-(2-thienyl)butyl]-1,3-benzoxazole-3-carboxamide] had an IC50 of 99 ± 58 nM.

Regarding `COc1ccc(CCCCNC(=O)n2c(=O)oc3ccccc32)cc1` [Example 45, N-[4-(4-Methoxyphenyl)butyl]-2-oxo-1,3-benzoxazole-3-carboxamide], the IC50 amounted to 63 ± 22 nM.

`O=C(NCCCCc1ccc(F)cc1)n1c(=O)oc2ccccc21` [Example 46, N-[4-(4-Fluorophenyl)butyl]-2-oxo-1,3-benzoxazole-3-carboxamide]: the IC50 was 75 nM. As for `Cc1ccc(CCCCNC(=O)n2c(=O)oc3ccccc32)cc1` [Example 47, 2-Oxo-N-[4-(p-tolyl)butyl]-1,3-benzoxazole-3-carboxamide], the IC50 is 28 nM.

On to `O=C(NCCCc1cccc(F)c1)n1c(=O)oc2ccccc21` [Example 50, N-[3-(3-Fluorophenyl)propyl]-2-oxo-1,3-benzoxazole-3-carboxamide], for which inhibition was half-maximal at 49 nM (IC50). This IC50 is about 1.8-fold higher than that of the molecule before.
